The record followed here is PubChem BioAssay (NCI).

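Interpolation was linear, between the two tested concentrations surrounding the appropriate level; five concentrations were tested over 48 hours in 96-well plates. GI50: concentration for 50% inhibition of growth. TGI marks complete inhibition of growth.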 Where a SMILES comes first, the peptide text is derived from it. The star is where a group is joined. Boc = CC(C)(C)OC(=O)*

The subject of the first assay is NCI-H460 lung. Nature of the assay: NCI anticancer screen, dose series, 48 h.
In the case of `O=C(NCCN1CCOCC1)c1ccc2cc(C(=O)N3CC(CCl)c4ccc([N+](=O)[O-])cc43)[nH]c2c1` (stereo not drawn), the TGI amounted to 26.1 µM.
Same read-out and setting: under `O=c1c2cc3c(cc2[nH]c2ncccc12)OCO3` stands more than 10 µM; under `Cc1csc(-c2cn(C)c3c2C(=O)C(N)=CC3=O)n1`, 15.9 µM; under `Nc1c(-c2cccc3ccccc23)c2ccc([N+](=O)[O-])cc2c(=O)n1-c1nc2ccccc2s1`, more than 100 µM.
Consider `CC1CC[C@@]2(OC1)OC1C[C@H]3[C@@H]4CC[C@H]5CC(OC6OC(CO)C(OC7OC(CO)C(O)C(O)C7OC7OC(CO)C(O)C(O)C7O)C(O)C6O)CCC5(C)[C@H]4CCC3(C)C1[C@@H]2C` (stereo partly drawn), for which the TGI came out at 11.6 µM.
The same measure, in the same setting: under `O=c1c2ccccc2nc2[nH][nH]c(=S)n12` stands more than 100 µM.
On the same count and under the same terms, under `CC(C)(C)OC(=O)NCC(=O)NCC(=O)NCC(=O)NCC(=O)O` (Boc-GGGG-OH) stands more than 100 µM.
The same measure, in the same setting: under `COc1ccc(CC(O)CN2CCOCC2)cc1` (stereo not drawn) stands more than 100 µM; under `CN(C)CCCN1C(=S)N(CCCN(C)C)c2c3cc(O)ccc3nc3c([N+](=O)[O-])ccc1c23`, 6.7 µM.
On to `COc1cc(C2SCC(=O)N2c2ccc(NC(=O)c3ccc(N4C(=O)CSC4c4cc(OC)c(OC)c(OC)c4)cc3)cc2)cc(OC)c1OC` (stereo not drawn), for which the TGI is more than 100 µM.
The same measure, in the same setting: under `N#C/C(=C\c1cc(Br)c(O)c(Br)c1)c1cccnc1` stands more than 100 µM; under `CN(C)Cc1cc(C(=O)/C=C/c2ccc(O)cc2)cc(CN(C)C)c1O`, more than 100 µM.

A further assay has as its system SF-295 CNS. Put plainly: NCI anticancer screen, dose series, 48 h.
With `COc1cc2c(cc1-c1c(C)noc1C)cc(C)c(=O)n2Cc1ccccn1`, the GI50 is 2.3 µM and the TGI is more than 100 µM.
Compound `N#CC(C#N)=CNC(=S)c1ccncc1` gave a TGI of more than 100 µM.
On to `O=c1cc(N=P(c2ccccc2)(c2ccccc2)c2ccccc2)n(-c2ccccc2)c(=O)n1-c1ccccc1`, for which the TGI came to 85.8 µM.
`O=C(NCCCN(CCCCN(CCCNC(=O)C(F)(F)F)Cc1ccccc1)Cc1ccccc1)C(F)(F)F` showed a TGI of 30 µM.
Same read-out and setting: under `COc1ccc(C2(CC(C)O)SCCCS2)cc1` (stereo not drawn) stands more than 100 µM; under `Clc1ccc(-c2nn3c(-c4ccncc4)nnc3s2)cc1`, more than 100 µM; under `Cc1ccccc1C(O)(c1nccn1C)c1nccn1C`, more than 100 µM.
On the same count and under the same terms, under `Oc1ccccc1/C=N/c1nc2cc3sc(/N=C/c4ccccc4O)nc3cc2s1` stands more than 100 µM; under `CCN(CC)CCOc1ccc(N2C(=O)c3cc(OC)c(OC)cc3C2=O)cc1`, more than 100 µM; under `CCOC(=N)n1c(=O)n(C2=NCCN2)c2ccccc21`, more than 100 µM.
On the same count and under the same terms, under `O=C(NCCN1CCOCC1)c1ccc2cc(C(=O)N3CC(CCl)c4ccc([N+](=O)[O-])cc43)[nH]c2c1` (stereo not drawn) stands 13.3 µM; under `O=c1c2cc3c(cc2[nH]c2ncccc12)OCO3`, more than 10 µM; under `Cc1csc(-c2cn(C)c3c2C(=O)C(N)=CC3=O)n1`, 20.8 µM.
Turning to `Nc1c(-c2cccc3ccccc23)c2ccc([N+](=O)[O-])cc2c(=O)n1-c1nc2ccccc2s1`, the TGI is more than 34.2 µM.
Still for that read-out and setting: under `CC1CC[C@@]2(OC1)OC1C[C@H]3[C@@H]4CC[C@H]5CC(OC6OC(CO)C(OC7OC(CO)C(O)C(O)C7OC7OC(CO)C(O)C(O)C7O)C(O)C6O)CCC5(C)[C@H]4CCC3(C)C1[C@@H]2C` (stereo partly drawn) stands 11 µM; under `O=c1c2ccccc2nc2[nH][nH]c(=S)n12`, more than 100 µM; under `CC(C)(C)OC(=O)NCC(=O)NCC(=O)NCC(=O)NCC(=O)O` (Boc-GGGG-OH), more than 100 µM.
Same read-out and setting: under `COc1ccc(CC(O)CN2CCOCC2)cc1` (stereo not drawn) stands more than 100 µM; under `CN(C)CCCN1C(=S)N(CCCN(C)C)c2c3cc(O)ccc3nc3c([N+](=O)[O-])ccc1c23`, 19 µM; under `COc1cc(C2SCC(=O)N2c2ccc(NC(=O)c3ccc(N4C(=O)CSC4c4cc(OC)c(OC)c(OC)c4)cc3)cc2)cc(OC)c1OC` (stereo not drawn), more than 100 µM.
Still for that read-out and setting: under `N#C/C(=C\c1cc(Br)c(O)c(Br)c1)c1cccnc1` stands 46.7 µM; under `CN(C)Cc1cc(C(=O)/C=C/c2ccc(O)cc2)cc(CN(C)C)c1O`, more than 100 µM.

The test system of a further assay is SN12C renal. Nature of the assay: NCI anticancer screen, dose series, 48 h.
Regarding `COc1cc2c(cc1-c1c(C)noc1C)cc(C)c(=O)n2Cc1ccccn1`, the GI50 was 2.91 µM and the TGI was more than 100 µM.
With `N#CC(C#N)=CNC(=S)c1ccncc1`, the TGI is more than 100 µM.
On the same count and under the same terms, under `O=c1cc(N=P(c2ccccc2)(c2ccccc2)c2ccccc2)n(-c2ccccc2)c(=O)n1-c1ccccc1` stands 75.3 µM.
Same read-out and setting: under `O=C(NCCCN(CCCCN(CCCNC(=O)C(F)(F)F)Cc1ccccc1)Cc1ccccc1)C(F)(F)F` stands 36.5 µM.
Still for that read-out and setting: under `COc1ccc(C2(CC(C)O)SCCCS2)cc1` (stereo not drawn) stands more than 100 µM; under `Clc1ccc(-c2nn3c(-c4ccncc4)nnc3s2)cc1`, more than 100 µM; under `Cc1ccccc1C(O)(c1nccn1C)c1nccn1C`, more than 100 µM.
Compound `Oc1ccccc1/C=N/c1nc2cc3sc(/N=C/c4ccccc4O)nc3cc2s1` yielded a TGI of more than 100 µM.
Regarding `CCN(CC)CCOc1ccc(N2C(=O)c3cc(OC)c(OC)cc3C2=O)cc1`, the TGI is more than 100 µM.
Same read-out and setting: under `CCOC(=N)n1c(=O)n(C2=NCCN2)c2ccccc21` stands more than 100 µM; under `O=C(NCCN1CCOCC1)c1ccc2cc(C(=O)N3CC(CCl)c4ccc([N+](=O)[O-])cc43)[nH]c2c1` (stereo not drawn), 52.7 µM.
Regarding `O=c1c2cc3c(cc2[nH]c2ncccc12)OCO3`, the TGI was more than 10 µM.
Still for that read-out and setting: under `Cc1csc(-c2cn(C)c3c2C(=O)C(N)=CC3=O)n1` stands more than 100 µM.
For `Nc1c(-c2cccc3ccccc23)c2ccc([N+](=O)[O-])cc2c(=O)n1-c1nc2ccccc2s1`, the TGI is more than 100 µM.
On the same count and under the same terms, under `CC1CC[C@@]2(OC1)OC1C[C@H]3[C@@H]4CC[C@H]5CC(OC6OC(CO)C(OC7OC(CO)C(O)C(O)C7OC7OC(CO)C(O)C(O)C7O)C(O)C6O)CCC5(C)[C@H]4CCC3(C)C1[C@@H]2C` (stereo partly drawn) stands 7.42 µM; under `O=c1c2ccccc2nc2[nH][nH]c(=S)n12`, more than 100 µM.
For the compound `CC(C)(C)OC(=O)NCC(=O)NCC(=O)NCC(=O)NCC(=O)O` (Boc-GGGG-OH), the TGI is more than 100 µM.
The same measure, in the same setting: under `COc1ccc(CC(O)CN2CCOCC2)cc1` (stereo not drawn) stands more than 100 µM; under `CN(C)CCCN1C(=S)N(CCCN(C)C)c2c3cc(O)ccc3nc3c([N+](=O)[O-])ccc1c23`, 36.1 µM; under `COc1cc(C2SCC(=O)N2c2ccc(NC(=O)c3ccc(N4C(=O)CSC4c4cc(OC)c(OC)c(OC)c4)cc3)cc2)cc(OC)c1OC` (stereo not drawn), more than 100 µM.
The compound `N#C/C(=C\c1cc(Br)c(O)c(Br)c1)c1cccnc1` showed a TGI of more than 100 µM.
`CN(C)Cc1cc(C(=O)/C=C/c2ccc(O)cc2)cc(CN(C)C)c1O` had a TGI of 60.1 µM.
